Test results from US9993554B2 (CENTRO NACIONAL DE INVESTIGACIONES ONCOLOGICAS (CNIO), priority 2010, dated 2018).

Target: PI3K isoform p1103 (Homo sapiens, UniProt P42338)
Experiment: Inhibition of PI3K isoform p110β
Assay type: biochemical

PI3K isoform p1103, sequence (P42338 whole entry, canonical isoform): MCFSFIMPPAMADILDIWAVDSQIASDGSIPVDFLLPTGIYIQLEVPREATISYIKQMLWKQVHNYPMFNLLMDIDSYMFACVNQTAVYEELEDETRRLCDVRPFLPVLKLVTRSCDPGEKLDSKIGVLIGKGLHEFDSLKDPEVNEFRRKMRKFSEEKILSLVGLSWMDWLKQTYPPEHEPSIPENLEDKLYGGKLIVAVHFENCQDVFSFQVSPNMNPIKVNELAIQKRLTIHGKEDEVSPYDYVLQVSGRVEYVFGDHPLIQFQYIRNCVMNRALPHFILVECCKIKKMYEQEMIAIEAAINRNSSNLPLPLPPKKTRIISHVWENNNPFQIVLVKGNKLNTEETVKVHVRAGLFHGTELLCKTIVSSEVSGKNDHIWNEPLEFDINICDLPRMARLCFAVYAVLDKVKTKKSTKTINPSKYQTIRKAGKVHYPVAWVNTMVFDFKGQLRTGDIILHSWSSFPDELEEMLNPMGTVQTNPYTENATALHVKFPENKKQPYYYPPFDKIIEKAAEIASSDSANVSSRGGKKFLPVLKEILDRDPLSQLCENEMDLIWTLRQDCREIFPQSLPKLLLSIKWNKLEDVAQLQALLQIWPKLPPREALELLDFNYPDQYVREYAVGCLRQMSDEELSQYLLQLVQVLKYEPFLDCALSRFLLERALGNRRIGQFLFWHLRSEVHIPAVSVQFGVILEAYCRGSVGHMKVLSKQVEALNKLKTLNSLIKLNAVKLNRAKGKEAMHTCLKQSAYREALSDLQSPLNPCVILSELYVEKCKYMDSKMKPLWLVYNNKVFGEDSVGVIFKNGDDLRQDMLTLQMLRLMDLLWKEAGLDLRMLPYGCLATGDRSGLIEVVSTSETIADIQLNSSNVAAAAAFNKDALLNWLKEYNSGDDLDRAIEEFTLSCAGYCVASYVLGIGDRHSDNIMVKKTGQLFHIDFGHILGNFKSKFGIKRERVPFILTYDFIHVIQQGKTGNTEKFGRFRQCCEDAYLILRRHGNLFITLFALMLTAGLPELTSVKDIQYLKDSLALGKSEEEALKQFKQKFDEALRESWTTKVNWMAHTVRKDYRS
PI3K isoform p1103, sequence (P27986 whole entry partner, canonical isoform): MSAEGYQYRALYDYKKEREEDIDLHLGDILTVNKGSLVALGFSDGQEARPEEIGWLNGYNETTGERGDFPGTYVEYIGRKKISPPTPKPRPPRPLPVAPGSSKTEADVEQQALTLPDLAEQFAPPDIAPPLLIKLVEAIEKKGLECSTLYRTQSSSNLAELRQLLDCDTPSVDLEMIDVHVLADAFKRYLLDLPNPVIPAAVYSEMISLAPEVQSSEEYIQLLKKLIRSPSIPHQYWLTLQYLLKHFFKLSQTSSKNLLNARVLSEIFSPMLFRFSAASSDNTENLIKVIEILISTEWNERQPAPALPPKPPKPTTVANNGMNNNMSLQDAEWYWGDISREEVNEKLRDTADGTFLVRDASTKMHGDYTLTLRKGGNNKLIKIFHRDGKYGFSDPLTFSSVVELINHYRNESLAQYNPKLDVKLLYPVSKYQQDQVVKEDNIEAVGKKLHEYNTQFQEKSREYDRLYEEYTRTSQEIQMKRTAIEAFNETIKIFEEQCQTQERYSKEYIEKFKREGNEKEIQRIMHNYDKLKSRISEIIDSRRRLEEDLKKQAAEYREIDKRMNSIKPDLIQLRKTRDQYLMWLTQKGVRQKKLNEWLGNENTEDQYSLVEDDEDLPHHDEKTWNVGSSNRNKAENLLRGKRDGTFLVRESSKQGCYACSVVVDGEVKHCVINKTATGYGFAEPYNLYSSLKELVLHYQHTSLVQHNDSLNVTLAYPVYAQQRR

Compound `CS(=O)(=O)N1CCN(Cc2cn3c(Cl)c(-c4cnc(N)nc4)nc(N4CCOCC4)c3n2)CC1` [Compound A] has a Ki greater than 100 nM.
